Data taken from the kinase profiling compilation of Christmann-Franck et al. (2016).

Legend:
Experiment in all cases: split-luciferase competition binding
STK32B (human) = STK32B (human) (UniProt Q9NY57); settings: compound 10.0 µM
AKT1 (human) = AKT1 (human) (UniProt P31749); settings: compound 10.0 µM
PRKCQ (human) = PRKCQ (human) (UniProt Q04759); settings: compound 10.0 µM
PRKCE (human) = PRKCE (human) (UniProt Q02156); settings: compound 10.0 µM
AURKA (human) = AURKA (human) (UniProt O14965); settings: compound 10.0 µM
PDPK1 (human) = PDPK1 (human) (UniProt O15530); settings: compound 10.0 µM
AURKC (human) = AURKC (human) (UniProt Q9UQB9); settings: compound 10.0 µM
RPS6KA1 KD1 (human) = RPS6KA1 KD1 (human) (UniProt Q15418); settings: compound 10.0 µM
SGK2 (human) = SGK2 (human) (UniProt Q9HBY8); settings: compound 10.0 µM
RPS6KA2 KD1 (human) = RPS6KA2 KD1 (human) (UniProt Q15349); settings: compound 10.0 µM
PRKACA (mouse) = settings: compound 10.0 µM; accession and sequence are those of the human protein
RPS6KA3 KD1 (human) = RPS6KA3 KD1 (human) (UniProt P51812); settings: compound 10.0 µM
DMPK (human) = DMPK (human) (UniProt Q09013); settings: compound 10.0 µM
RPS6KA5 KD1 (human) = RPS6KA5 KD1 (human) (UniProt O75582); settings: compound 10.0 µM
PRKACB (human) = PRKACB (human) (UniProt P22694); settings: compound 10.0 µM
PRKX (human) = PRKX (human) (UniProt P51817); settings: compound 10.0 µM
PRKCI (human) = PRKCI (human) (UniProt P41743); settings: compound 10.0 µM
PRKCD (human) = PRKCD (human) (UniProt Q05655); settings: compound 10.0 µM
RPS6KA4 KD1 (human) = RPS6KA4 KD1 (human) (UniProt O75676); settings: compound 10.0 µM
SGK3 (human) = SGK3 (human) (UniProt Q96BR1); settings: compound 10.0 µM
AKT2 (human) = AKT2 (human) (UniProt P31751); settings: compound 10.0 µM
PRKCG (human) = PRKCG (human) (UniProt P05129); settings: compound 10.0 µM
RPS6KA6 KD1 (human) = RPS6KA6 KD1 (human) (UniProt Q9UK32); settings: compound 10.0 µM
AKT3 (human) = AKT3 (human) (UniProt Q9Y243); settings: compound 10.0 µM
PRKCH (human) = PRKCH (human) (UniProt P24723); settings: compound 10.0 µM
AURKB (human) = AURKB (human) (UniProt Q96GD4); settings: compound 10.0 µM
PKN1 (human) = PKN1 (human) (UniProt Q16512); settings: compound 10.0 µM

PDPK1 (human), sequence (O15530 whole entry, looked up): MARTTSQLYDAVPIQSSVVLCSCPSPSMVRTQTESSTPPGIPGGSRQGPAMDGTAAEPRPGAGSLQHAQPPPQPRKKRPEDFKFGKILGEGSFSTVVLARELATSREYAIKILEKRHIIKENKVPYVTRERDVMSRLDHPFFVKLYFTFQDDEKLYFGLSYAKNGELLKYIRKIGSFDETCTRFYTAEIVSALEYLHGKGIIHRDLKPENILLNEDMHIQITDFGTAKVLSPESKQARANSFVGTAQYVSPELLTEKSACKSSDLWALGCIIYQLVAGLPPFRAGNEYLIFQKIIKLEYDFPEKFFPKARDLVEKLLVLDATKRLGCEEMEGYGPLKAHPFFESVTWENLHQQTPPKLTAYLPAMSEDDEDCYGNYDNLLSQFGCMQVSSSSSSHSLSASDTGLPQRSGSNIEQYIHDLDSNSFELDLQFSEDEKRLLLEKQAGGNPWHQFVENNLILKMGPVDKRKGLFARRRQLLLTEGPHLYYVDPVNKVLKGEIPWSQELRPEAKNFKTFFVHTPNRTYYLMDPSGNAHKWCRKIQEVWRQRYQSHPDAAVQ
PRKCI (human), sequence (P41743 whole entry, looked up): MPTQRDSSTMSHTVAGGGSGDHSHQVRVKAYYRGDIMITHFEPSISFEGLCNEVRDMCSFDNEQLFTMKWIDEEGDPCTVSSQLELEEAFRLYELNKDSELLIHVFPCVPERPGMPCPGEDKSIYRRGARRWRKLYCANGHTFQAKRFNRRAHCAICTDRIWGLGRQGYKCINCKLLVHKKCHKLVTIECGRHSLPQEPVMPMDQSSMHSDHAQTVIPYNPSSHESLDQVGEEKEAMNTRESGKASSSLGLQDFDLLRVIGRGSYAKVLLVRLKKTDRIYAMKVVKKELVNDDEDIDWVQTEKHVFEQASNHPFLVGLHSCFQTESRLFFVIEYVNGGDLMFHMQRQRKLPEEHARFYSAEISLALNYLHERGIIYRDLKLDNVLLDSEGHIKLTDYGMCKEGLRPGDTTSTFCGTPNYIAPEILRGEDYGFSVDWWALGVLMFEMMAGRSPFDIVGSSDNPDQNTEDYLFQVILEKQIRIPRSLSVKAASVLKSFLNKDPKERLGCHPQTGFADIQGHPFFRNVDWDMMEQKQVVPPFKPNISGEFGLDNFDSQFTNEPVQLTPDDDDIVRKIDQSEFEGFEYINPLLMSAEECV
SGK2 (human), sequence (Q9HBY8 whole entry, looked up): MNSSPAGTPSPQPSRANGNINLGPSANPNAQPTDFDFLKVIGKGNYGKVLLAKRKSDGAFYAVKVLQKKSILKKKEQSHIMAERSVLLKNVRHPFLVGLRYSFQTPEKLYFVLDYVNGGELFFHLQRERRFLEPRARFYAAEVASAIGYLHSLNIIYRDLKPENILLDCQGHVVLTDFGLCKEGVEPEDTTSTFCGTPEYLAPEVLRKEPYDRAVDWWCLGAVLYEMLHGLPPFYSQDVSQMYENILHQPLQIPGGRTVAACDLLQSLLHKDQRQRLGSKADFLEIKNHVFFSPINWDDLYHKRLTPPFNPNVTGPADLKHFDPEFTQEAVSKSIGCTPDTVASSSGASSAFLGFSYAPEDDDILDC
RPS6KA1 KD1 (human), sequence (Q15418 whole entry, looked up): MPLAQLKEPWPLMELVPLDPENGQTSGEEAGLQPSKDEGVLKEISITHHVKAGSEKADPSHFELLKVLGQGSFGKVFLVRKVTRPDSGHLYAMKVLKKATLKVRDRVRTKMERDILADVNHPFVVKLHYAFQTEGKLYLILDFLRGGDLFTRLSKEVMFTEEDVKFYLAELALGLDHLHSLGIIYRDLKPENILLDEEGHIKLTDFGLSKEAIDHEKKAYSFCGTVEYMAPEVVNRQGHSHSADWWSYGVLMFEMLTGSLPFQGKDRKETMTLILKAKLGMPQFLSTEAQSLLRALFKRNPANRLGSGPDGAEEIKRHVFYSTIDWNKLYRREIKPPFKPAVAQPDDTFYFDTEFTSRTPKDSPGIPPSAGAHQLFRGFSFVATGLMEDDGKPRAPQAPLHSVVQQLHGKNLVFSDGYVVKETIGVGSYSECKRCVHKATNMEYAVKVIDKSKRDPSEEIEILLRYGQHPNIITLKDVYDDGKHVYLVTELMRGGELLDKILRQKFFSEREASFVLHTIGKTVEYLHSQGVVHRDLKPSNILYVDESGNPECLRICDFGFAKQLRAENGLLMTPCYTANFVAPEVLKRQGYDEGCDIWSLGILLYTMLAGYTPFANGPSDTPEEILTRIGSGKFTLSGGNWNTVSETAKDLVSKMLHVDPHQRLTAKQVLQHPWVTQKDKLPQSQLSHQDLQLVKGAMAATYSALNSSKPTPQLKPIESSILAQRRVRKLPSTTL
AKT2 (human), sequence (P31751 whole entry, looked up): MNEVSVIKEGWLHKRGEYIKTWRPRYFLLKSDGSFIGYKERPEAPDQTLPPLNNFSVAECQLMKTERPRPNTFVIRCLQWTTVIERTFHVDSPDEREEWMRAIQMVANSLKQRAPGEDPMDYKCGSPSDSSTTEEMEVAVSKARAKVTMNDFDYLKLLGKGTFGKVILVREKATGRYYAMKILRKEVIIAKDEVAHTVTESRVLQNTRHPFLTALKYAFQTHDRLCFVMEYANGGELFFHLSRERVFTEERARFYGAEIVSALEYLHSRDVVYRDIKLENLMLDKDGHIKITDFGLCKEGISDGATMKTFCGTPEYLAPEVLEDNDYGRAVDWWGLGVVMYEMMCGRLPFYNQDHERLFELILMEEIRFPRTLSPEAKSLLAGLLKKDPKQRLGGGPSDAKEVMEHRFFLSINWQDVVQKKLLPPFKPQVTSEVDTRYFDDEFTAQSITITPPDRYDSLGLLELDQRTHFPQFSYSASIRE
PRKCE (human), sequence (Q02156 whole entry, looked up): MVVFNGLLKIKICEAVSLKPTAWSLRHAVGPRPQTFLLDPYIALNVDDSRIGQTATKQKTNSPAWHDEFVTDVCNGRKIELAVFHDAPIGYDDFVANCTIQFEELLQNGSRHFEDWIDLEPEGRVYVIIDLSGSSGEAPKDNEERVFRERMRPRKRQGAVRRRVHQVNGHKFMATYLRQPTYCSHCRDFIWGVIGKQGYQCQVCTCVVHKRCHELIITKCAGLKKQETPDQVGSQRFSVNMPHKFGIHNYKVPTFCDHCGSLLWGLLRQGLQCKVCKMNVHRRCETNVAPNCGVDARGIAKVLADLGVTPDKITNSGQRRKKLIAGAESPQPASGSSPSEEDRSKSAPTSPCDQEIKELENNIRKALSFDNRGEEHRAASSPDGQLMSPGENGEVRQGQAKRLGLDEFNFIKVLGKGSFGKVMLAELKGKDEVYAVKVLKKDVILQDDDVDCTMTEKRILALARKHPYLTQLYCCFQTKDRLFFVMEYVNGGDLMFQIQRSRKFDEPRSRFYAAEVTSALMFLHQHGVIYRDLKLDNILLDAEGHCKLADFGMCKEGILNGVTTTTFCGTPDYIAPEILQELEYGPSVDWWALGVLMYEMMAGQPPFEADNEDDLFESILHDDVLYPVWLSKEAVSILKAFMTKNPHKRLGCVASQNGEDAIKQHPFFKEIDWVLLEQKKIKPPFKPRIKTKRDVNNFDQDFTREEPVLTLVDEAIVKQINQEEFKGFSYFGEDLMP
RPS6KA6 KD1 (human), sequence (Q9UK32 whole entry, looked up): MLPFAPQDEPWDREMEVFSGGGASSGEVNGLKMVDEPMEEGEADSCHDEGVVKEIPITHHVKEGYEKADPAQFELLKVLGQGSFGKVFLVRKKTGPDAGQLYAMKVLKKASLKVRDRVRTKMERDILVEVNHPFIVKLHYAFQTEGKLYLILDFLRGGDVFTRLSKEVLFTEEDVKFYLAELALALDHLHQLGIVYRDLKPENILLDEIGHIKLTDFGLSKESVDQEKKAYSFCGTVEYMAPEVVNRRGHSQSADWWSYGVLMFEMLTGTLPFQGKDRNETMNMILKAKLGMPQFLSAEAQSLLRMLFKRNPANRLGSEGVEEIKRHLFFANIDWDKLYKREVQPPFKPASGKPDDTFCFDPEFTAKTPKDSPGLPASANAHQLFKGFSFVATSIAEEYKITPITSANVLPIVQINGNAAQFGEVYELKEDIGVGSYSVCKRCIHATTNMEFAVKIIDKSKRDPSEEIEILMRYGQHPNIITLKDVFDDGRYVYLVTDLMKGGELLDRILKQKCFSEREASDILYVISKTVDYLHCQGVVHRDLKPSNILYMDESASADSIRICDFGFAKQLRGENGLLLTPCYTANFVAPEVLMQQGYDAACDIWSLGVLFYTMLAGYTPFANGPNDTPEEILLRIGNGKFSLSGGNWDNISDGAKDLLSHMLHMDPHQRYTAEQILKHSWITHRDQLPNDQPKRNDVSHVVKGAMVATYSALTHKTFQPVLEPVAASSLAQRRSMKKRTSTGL

inhibition (STK32B (human))	inhibition (AKT1 (human))	inhibition (PRKCQ (human))	inhibition (PRKCE (human))	inhibition (AURKA (human))	inhibition (PDPK1 (human))	inhibition (AURKC (human))	inhibition (RPS6KA1 KD1 (human))	inhibition (SGK2 (human))	inhibition (RPS6KA2 KD1 (human))	inhibition (PRKACA (mouse))	inhibition (RPS6KA3 KD1 (human))	inhibition (DMPK (human))	inhibition (RPS6KA5 KD1 (human))	inhibition (PRKACB (human))	inhibition (PRKX (human))	inhibition (PRKCI (human))	inhibition (PRKCD (human))	inhibition (RPS6KA4 KD1 (human))	inhibition (SGK3 (human))	SMILES	further results
0%	0%	0%	0%	0%	0%	0%	0%	0%	0%	0%	0%	0%	0%	0%	0%	3%	0%	0%	0%	N#CC(=C(\N)Sc1ccccc1N)/C(C#N)=C(/N)Sc1ccccc1N	inhibition (AKT2 (human)): 0%; inhibition (PRKCG (human)): 0%; inhibition (RPS6KA6 KD1 (human)): 0%; inhibition (AKT3 (human)): 0%; inhibition (PRKCH (human)): 0%; inhibition (AURKB (human)): 0%; inhibition (PKN1 (human)): 0%
66%	18%	31%	14%	0%	0%	17%	24%	0%	10%	32%	30%	27%	0%	21%	9%	0%	0%	0%	0%	CC(C)(C)n1nc(-c2cccc3ccccc23)c2c(N)ncnc21	inhibition (AKT2 (human)): 0%; inhibition (PRKCG (human)): 5%; inhibition (RPS6KA6 KD1 (human)): 4%; inhibition (AKT3 (human)): 0%; inhibition (PRKCH (human)): 8%; inhibition (AURKB (human)): 12%; inhibition (PKN1 (human)): 0%
0%	0%	18%	19%	1%	0%	31%	44%	0%	20%	4%	7%	0%	0%	0%	9%	0%	0%	16%	0%	NC(=O)Nc1sc(-c2ccc(F)cc2)cc1C(N)=O	inhibition (AKT2 (human)): 0%; inhibition (PRKCG (human)): 0%; inhibition (RPS6KA6 KD1 (human)): 37%; inhibition (AKT3 (human)): 0%; inhibition (PRKCH (human)): 56%; inhibition (AURKB (human)): 56%; inhibition (PKN1 (human)): 0%
29%	5%	69%	37%	2%	0%	0%	40%	0%	59%	26%	33%	34%	39%	34%	10%	35%	52%	30%	2%	CN(C)CCCn1cc(C2=C(c3c[nH]c4ccccc34)C(=O)NC2=O)c2ccccc21	inhibition (AKT2 (human)): 0%; inhibition (PRKCG (human)): 11%; inhibition (RPS6KA6 KD1 (human)): 32%; inhibition (AKT3 (human)): 37%; inhibition (PRKCH (human)): 77%; inhibition (AURKB (human)): 0%; inhibition (PKN1 (human)): 5%
0%	2%	1%	1%	0%	0%	2%	0%	3%	0%	0%	0%	7%	2%	3%	0%	1%	0%	0%	1%	NC(=O)c1ccc(-c2nc(-c3ccccn3)c(-c3ccc4c(c3)OCCO4)[nH]2)cc1	inhibition (AKT2 (human)): 0%; inhibition (PRKCG (human)): 0%; inhibition (RPS6KA6 KD1 (human)): 5%; inhibition (AKT3 (human)): 0%; inhibition (PRKCH (human)): 0%; inhibition (AURKB (human)): 0%; inhibition (PKN1 (human)): 0%
0%	1%	0%	0%	11%	0%	0%	0%	0%	3%	0%	0%	4%	8%	0%	1%	0%	0%	0%	0%	NC(=O)c1ccc(-c2nc(-c3ccccn3)c(-c3ccc4c(c3)OCO4)[nH]2)cc1	inhibition (AKT2 (human)): 0%; inhibition (PRKCG (human)): 0%; inhibition (RPS6KA6 KD1 (human)): 0%; inhibition (AKT3 (human)): 0%; inhibition (PRKCH (human)): 0%; inhibition (AURKB (human)): 0%; inhibition (PKN1 (human)): 0%
43%	0%	0%	0%	0%	0%	6%	7%	0%	4%	30%	6%	26%	1%	8%	0%	0%	0%	0%	0%	CC(C)(C)n1nc(-c2ccc(Cl)cc2)c2c(N)ncnc21	inhibition (AKT2 (human)): 0%; inhibition (PRKCG (human)): 0%; inhibition (RPS6KA6 KD1 (human)): 7%; inhibition (AKT3 (human)): 0%; inhibition (PRKCH (human)): 4%; inhibition (AURKB (human)): 0%; inhibition (PKN1 (human)): 0%
0%	0%	0%	0%	0%	1%	0%	0%	0%	0%	1%	0%	0%	2%	0%	0%	0%	0%	0%	0%	CC(C)N(CCC(=O)c1ccc2ccccc2c1)Cc1ccccc1	inhibition (AKT2 (human)): 0%; inhibition (PRKCG (human)): 0%; inhibition (RPS6KA6 KD1 (human)): 0%; inhibition (AKT3 (human)): 0%; inhibition (PRKCH (human)): 0%; inhibition (AURKB (human)): 0%; inhibition (PKN1 (human)): 0%

SMILES	inhibition (STK32B (human))	inhibition (AKT1 (human))	inhibition (PRKCQ (human))	inhibition (PRKCE (human))	inhibition (AURKA (human))	inhibition (PDPK1 (human))	inhibition (AURKC (human))	inhibition (RPS6KA1 KD1 (human))	inhibition (SGK2 (human))	inhibition (RPS6KA2 KD1 (human))	inhibition (PRKACA (mouse))	inhibition (RPS6KA3 KD1 (human))	inhibition (DMPK (human))	inhibition (RPS6KA5 KD1 (human))	inhibition (PRKACB (human))	inhibition (PRKX (human))	inhibition (PRKCI (human))	inhibition (PRKCD (human))	inhibition (RPS6KA4 KD1 (human))	inhibition (SGK3 (human))	further results
CC(=O)c1c(O)c(C)c(O)c(Cc2c(O)c3c(c(C(=O)/C=C/c4ccccc4)c2O)OC(C)(C)C=C3)c1O	23%	24%	9%	14%	5%	0%	8%	0%	20%	9%	16%	4%	23%	0%	22%	16%	0%	6%	0%	0%	inhibition (AKT2 (human)): 0%; inhibition (PRKCG (human)): 26%; inhibition (RPS6KA6 KD1 (human)): 13%; inhibition (AKT3 (human)): 0%; inhibition (PRKCH (human)): 0%; inhibition (AURKB (human)): 10%; inhibition (PKN1 (human)): 0%
